Patent publication US8389505B2, “Adamantane derivatives of AZA-crown ethers and their use in treatment of tumor” (Rudjer Boskovic Institute, priority 2009, dated 2013)

Columns and labels:
Assay type in all cases: cell-based
H 460 (lung carcinoma) = test: MTT proliferation assay, H 460 cells; conditions: Homo sapiens, NCI-H460, 72 hours incubation, read-out: IC50 (concentration that causes 50% growth inhibition), H 460
Experimental: (§1) The described assay was used to test the effects of compounds on the proliferation of various human tumor cell lines, whereby cytostatic and cytotoxic effects on cells can be differentiated. The experiments were carried out on human cell lines, which were derived from 6 tumor types. The following cell lines were used: MCF-7 (breast carcinoma), SW 620 (colon carcinoma), HCT 116 (colon carcinoma), MOLT-4 (acute lymphoblastic leukemia), H 460 (lung carcinoma), HeLa (cervical carcinoma), MiaPaCa-2 (pancreatic carcinoma).
(§2) MCF-7, SW 620, HCT 116, HeLa, MiaPaCa-2 and H 460 cell lines were cultured as monolayers and maintained in Dulbecco's modified Eagle medium (DMEM), while MOLT-4 cells were cultured in suspension in nutritive medium RPMI 1640, both supplemented with 10% fetal bovine serum (FBS), 2 mM L-glutamine, 100 U/ml penicillin and 100 μg/ml streptomycin in a humidified atmosphere with 5% CO2 at 37° C.
(§3) The panel cell lines were inoculated onto a series of standard 96-well microtiter plates on day 0, at 1×10^4 to 3×10^4 cells/ml, depending on the doubling times of the specific cell line. Test agents were added next day to the cell lines in five consecutive 10-fold dilutions (10^−8 to 10^−4 M) and incubated for a further 72 hours. Working dilutions were freshly prepared on the day of testing. The solvent (DMSO) was also tested for eventual inhibitory activity by adjusting its concentration to be the same as in working concentrations. After 72 hours of incubation the cell growth rate was evaluated by performing the MTT assay (Mossman, Methods Immunol, 1983, 65, 55-63.), which detects dehydrogenase activity in viable cells. The MTT Cell Proliferation Assay is a colorimetric assay system, which measures the reduction of a tetrazolium component (MTT) into an insoluble formazan produced by mitochondria of viable cells. For this purpose the substance treated medium was discarded and MTT was added to each well in concentration of 20 μg/40 μl. After four hours of incubation the precipitates were dissolved in 160 μl of dimethylsulphoxide (DMSO). The absorbance (OD, optical density) was measured on a microplate reader at 570 nm. The absorbance is directly proportional to the cell viability. The percentage of growth (PG) of the cell lines was calculated according to one of the following two equations (according to the National Cancer Institute protocols, www.dtp.nci.nih.gov): If (mean ODtest−mean ODtzero)≧0 then PG=100×(mean ODtest−mean ODtzero)/(mean ODctrl−mean ODtzero). If (mean ODtest−mean ODtzero)<0 then: PG=100×(mean ODtest−mean ODtzero)/ODtzero.
(§4) Mean ODtzero=the average of optical density measurements before exposure of cells to the test compound.
(§5) Mean ODtest=the average of optical density measurements after the desired period of time.
(§6) Mean ODctrl=the average of optical density measurements after the desired period of time with no exposure of cells to the test compound.
(§7) Each test point was performed in quadruplicate in three individual experiments. The results were expressed as IC50, a concentration necessary for 50% of proliferation inhibition. Each result is a mean value from three separate experiments. The IC50 measures the growth inhibitory power of the test agent and represents the concentration that causes 50% growth inhibition. The IC50 is calculated from dose-response curves using linear regression analysis by fitting the test concentrations that give PG values above and below the respective reference value (e.g. 50% of inhibition for IC50). Therefore, a “real” value for any of the response parameters is obtained only if at least one of the tested drug concentrations falls above, and likewise at least one falls below the respective reference value. If however, for a given cell line or test agent all of the tested concentrations produce PGs exceeding the respective reference level of effect (e.g. PG value of 50%), then the highest tested concentration is assigned as the default value. […]

[1] = system: HeLa (cervical carcinoma); test: MTT proliferation assay, HeLa cells; conditions: Homo sapiens, 72 hours incubation, read-out: IC50 (concentration that causes 50% growth inhibition), Hela
Experimental: as §1, §2, §3, §4, §5, §6, §7

SW 620 (colon carcinoma) = test: MTT proliferation assay, SW 620 cells; conditions: Homo sapiens, 72 hours incubation, read-out: IC50 (concentration that causes 50% growth inhibition), SW 620
Experimental: as §1, §2, §3, §4, §5, §6, §7

MCF-7 (breast carcinoma) = test: MTT proliferation assay, MCF-7 cells; conditions: Homo sapiens, MCF7, 72 hours incubation, read-out: IC50 (concentration that causes 50% growth inhibition), MCF-7
Experimental: as §1, §2, §3, §4, §5, §6, §7

[2] = system: MiaPaCa-2 (pancreatic carcinoma); test: MTT proliferation assay, MiaPaCa-2 cells; conditions: Homo sapiens, MIA PaCa-2, 72 hours incubation, read-out: IC50 (concentration that causes 50% growth inhibition), MiaPaCa-2
Experimental: as §1, §2, §3, §4, §5, §6, §7

[3] = system: MOLT-4 (acute lymphoblastic leukemia); test: MTT proliferation assay, MOLT-4 cells; conditions: Homo sapiens, 72 hours incubation, read-out: IC50 (concentration that causes 50% growth inhibition), MOLT-4
Experimental: as §1, §2, §3, §4
(§8) Mean ODtest=the average of optical density measurements after the desired period of time. […]

[4] = system: HCT 116 (colon carcinoma); test: MTT proliferation assay, HCT 116 cells; conditions: Homo sapiens, 72 hours incubation, read-out: IC50 (concentration that causes 50% growth inhibition), HCT 116
Experimental: as §1, §2, §3, §4, §8

[5] = system: various human tumor cell lines; test: MTT proliferation assay, panel of tumor cell lines; conditions: up to maximal tested concentration (c=100 μM) during 72 hours, all cell lines of Table 1
Experimental: as §1, with “carcinoma). […]” for “carcinoma).”
The panel cell lines were inoculated onto a series of standard 96-well microtiter plates on day 0, at 1×10^4 to 3×10^4 cells/ml, depending on the doubling times of the specific cell line. […] After 72 hours of incubation the cell growth rate was evaluated by performing the MTT assay (Mossman, Methods Immunol, 1983, 65, 55-63.), which detects dehydrogenase activity in viable cells. […] The absorbance (OD, optical density) was measured on a microplate reader at 570 nm. The absorbance is directly proportional to the cell viability. The percentage of growth (PG) of the cell lines was calculated according to one of the following two equations (according to the National Cancer Institute protocols, www.dtp.nci.nih.gov): If (mean ODtest−mean ODtzero)≧0 then PG=100×(mean ODtest−mean ODtzero)/(mean ODctrl−mean ODtzero). […]

SMILES	IC50 (H 460 (lung carcinoma)) [µM]	IC50 [1] [µM]	IC50 (SW 620 (colon carcinoma)) [µM]	IC50 (MCF-7 (breast carcinoma)) [µM]	IC50 [2] [µM]	IC50 [3] [nM]	IC50 [4] [µM]	antiproliferative activity [5]
C1COCCOCCN(CCC23CC4CC(CC(C4)C2)C3)CCOCCOCCO1 [Compound 1, N-[2-(1-adamantyl)ethyl]-aza-18-crown-6]	15 ± 0.6	16 ± 0.5	9 ± 6	8 ± 4	12 ± 0.6			
C(CN1CCOCCOCCOCCOCCOCC1)CC12CC3CC(CC(C3)C1)C2 [Compound 2, N-[3-(1-adamantyl)propyl]-aza-18-crown-6]	15 ± 0.1	14 ± 3	9 ± 3	6 ± 5	11 ± 2			
O=C(CC12CC3CC(CC(C3)C1)C2)N1CCOCCOCCOCCOCCOCC1 [Compound 3, N-[1-oxo-2-(1-adamantyl)ethyl]-aza-18-crown-6]	> 100	> 100	> 100	> 100	> 100			
O=C(CCC12CC3CC(CC(C3)C1)C2)N1CCOCCOCCOCCOCCOCC1 [Compound 4, N-[1-oxo-3-(1-adamantyl)propyl]-aza-18-crown-6]	72 ± 7	28 ± 7	13 ± 2	17 ± 5	30 ± 3.4			
C1COCCN(CCC23CC4CC(CC(C4)C2)C3)CCOCCOCCN(CCC23CC4CC(CC(C4)C2)C3)CCO1 [Compound 5, N,N′-Bis[2-(1-adamantyl)ethyl]-4,13-diaza-18-crown-6]	4 ± 3	2.3 ± 1.4	2.6 ± 1.9	4 ± 0.7	1.7 ± 0.6			
C(CN1CCOCCOCCN(CCCC23CC4CC(CC(C4)C2)C3)CCOCCOCC1)CC12CC3CC(CC(C3)C1)C2 [Compound 6, N,N″-Bis[3-(1-adamantyl)propyl]-4,13-diaza-18-crown-6]	0.2 ± 0.3		1 ± 0.4	1 ± 0.4		1000 ± 1000	0.4 ± 0.4	
O=C(CC12CC3CC(CC(C3)C1)C2)N1CCOCCOCCN(C(=O)CC23CC4CC(CC(C4)C2)C3)CCOCCOCC1 [Compound 7, N,N′-Bis[1-oxo-2-(1-adamantyl)ethyl]-4,13-diaza-18-crown-6]	14 ± 1		12 ± 5	5 ± 2		6000 ± 6000	6	
O=C(CCC12CC3CC(CC(C3)C1)C2)N1CCOCCOCCN(C(=O)CCC23CC4CC(CC(C4)C2)C3)CCOCCOCC1 [Compound 8, N,N′-Bis[1-oxo-3-(1-adamantyl)propyl]-4,13-diaza-18-crown-6]	11 ± 5		19 ± 16	2 ± 0.4		3000 ± 500	6 ± 4	
C1COCCOCCNCCOCCOCCN1 [Diaza-18-crown-6, diaza-18-crown-6, reference compound]	> 100	> 100	> 100	> 100	> 100	> 100000	> 100	did not show any antiproliferative activity
